Test results: patent EP1954678B1, “NOVEL NK1 AND NK2 ANTAGONISTS” (Abbott Products GmbH, priority 2005, dated 2007)
Where two headings read alike, the source gives them in different places.

How the values were obtained:
human NK1 receptors = biological target: T1, human NK1 receptors (Homo sapiens, UniProt P25103); assay: Binding of the test substances to NK1 receptors in vitro ([3H]-Substance P displacement, CHO cell membranes); conditions: [3H]-Substance P as ligand; membranes of CHO cells expressing the human NK1 receptor; Ki calculated from IC50; read-out: pKi (NK1) (converted)
T1 construct: expressed in transfected cells; host or cells: CHO cells (membrane preparation)
Experimental: In The Netherlands, the affinity of the test substances to human NK1 receptors was measured in vitro.
The receptor binding studies were performed with [^3H]-Substance P as ligand. For the binding test, different samples of a membrane preparation of CHO cells (= egg cells of the Chinese hamster, Chinese hamster oocytes), which express the human NK1 receptor ("Accession Number" of the associated nucleic acid sequence = M74290; "Accession Number" of the associated protein sequence = P25103; cf. Takeda, Y.; Chou, K. B., Takeda, J.; Sachais, B.S. and Krause, J. E; Biochemical and Biophysical Research Communications, 179(3) (1991) 1232 - 1240), were incubated with a solution of the marked ligand, with the incubation mixtures containing no test substance or additions of different concentrations of test substance. Then, separation of bound and free ligands was performed in each of the samples with the aid of glass-fibre filtration. The fraction remaining in the filter was washed several times with buffer solution and then the radioactivity of the fraction remaining in the filter was measured using a beta scintillation counter.
For the compounds of Examples 1 to 14, that concentration which effects half maximum displacement of the bound ligand was determined as IC50 of the respective test substance. From this, the corresponding inhibition constant (Ki value) of the test substance was calculated, and was stated as the negative common logarithm of the Ki value (= pKi value). The pKi value is a measurement of the affinity of the test substances to human NK1 receptors.

NK1 receptors [1] = biological target: T2, NK1 receptors (Cavia porcellus, UniProt P30547); assay: Functional NK1 antagonism on isolated guinea pig aorta ring preparations (Substance P induced relaxation); design: from tissue; host or cells: guinea pig aorta ring preparations; species or system Pirbright-White guinea pigs
Experimental: In The Netherlands, the action antagonistic to NK1 receptors of the test substances was measured in vitro on isolated ring preparations, kept in an oxygenated nutrient solution, of the aortas of Pirbright-White guinea pigs.
In order to measure the contraction of the vessel muscles, the preparations were fixed to a hook, joined by a thread to a force measuring apparatus and the contractions were recorded in each case on a plotter. The aorta preparations were tonicised with phenylephrine. […] The relaxations before and after the administration of the test substance were quantified in percent. The effective concentration of the half maximum inhibition of the relaxation of the tone (= EC50) was calculated. The negative common logarithm of the EC50 value (= pEC50) was given as characteristic variable. The pEC50 value is a measurement of the functional effectiveness of the test substances on NK1 receptors.

NK1 receptors [2] = biological target: T2, NK1 receptors; assay: NK-1-receptor-antagonistic effectiveness in vivo in anaesthetised guinea pigs (NKA test stimulus, early hypotension); design: from tissue; host or cells: whole anaesthetised guinea pig (in vivo); species or system Pirbright-White guinea pigs; conditions: for ED50: guinea pig; for oral activity as NK1 receptor antagonist: result in words, oral administration
Description: (§1) The NK-1- and NK-2-antagonistic activities of the test substances were investigated in anaesthetised guinea pigs in each case after intravenous (= i.v.) and oral (= p.o.) administration in vivo. With the present test model it is possible to detect both NK-2-antagonistic effects in three different organ systems (respiratory tracts, colon and circulation) and NK-1-antagonistic effects (rapid drop in blood pressure) in an animal simultaneously.
(§2) Pirbright-White guinea pigs of a body weight of 500-700 g were anaesthetised with ketamine/xylazine (67/13 mg/kg subcutaneously, initial dose, further doses administered as required). The animals were provided with an intravenous catheter in order to administer the substance and an intra-arterial catheter to measure the blood pressure. The animals were artificially ventilated via a tracheal cannula and the respiratory pressure was recorded by means of a pressure transducer. A balloon was introduced into the distal colon of the animals for manometric recording of colon motility by means of a pressure transducer. Blood pressure, heart rate, respiratory pressure and colonic pressure were measured continuously for each animal and plotted on a recorder and by means of a digital data-processing system. […] The second phase of delayed hypotension (= phase of maximum hypotension after 2-5 min.) on the other hand is mediated via NK-2 receptors, since they can be blocked by specific NK-2 receptor antagonists. […] Table 6: NK-1- and NK-2-receptor-antagonistic effective-ness of the test substances of Formula I on guinea pigs in vivo after intravenous administration
(§3) These ED50 values obtained from cumulative dose effect curves are plotted in table 6.
(§4) The antagonistic effects of the test substances were then determined as "area under the curve" ("AUC") over the investigation period after administration of the test substances (1 - 180 min after administration) and the ED50 values after oral administration obtained therefrom were plotted in table 7. Table 7: NK-1- and NK-2-receptor-antagonistic effective-ness of the test substances of Formula I on guinea pigs in vivo after oral administration

NK2 receptors = biological target: T3, NK2 receptors (Cavia porcellus, UniProt Q64077); assay: NK-2-receptor-antagonistic effectiveness in vivo in anaesthetised guinea pigs (NKA test stimulus: late hypotension, bronchoconstriction, colonic pressure); design: from tissue; host or cells: whole anaesthetised guinea pig (in vivo); species or system Pirbright-White guinea pigs; conditions: for ED50: guinea pig; for oral activity as NK2 receptor antagonist: result in words, oral administration
T3 sequence (Q64077 1-402): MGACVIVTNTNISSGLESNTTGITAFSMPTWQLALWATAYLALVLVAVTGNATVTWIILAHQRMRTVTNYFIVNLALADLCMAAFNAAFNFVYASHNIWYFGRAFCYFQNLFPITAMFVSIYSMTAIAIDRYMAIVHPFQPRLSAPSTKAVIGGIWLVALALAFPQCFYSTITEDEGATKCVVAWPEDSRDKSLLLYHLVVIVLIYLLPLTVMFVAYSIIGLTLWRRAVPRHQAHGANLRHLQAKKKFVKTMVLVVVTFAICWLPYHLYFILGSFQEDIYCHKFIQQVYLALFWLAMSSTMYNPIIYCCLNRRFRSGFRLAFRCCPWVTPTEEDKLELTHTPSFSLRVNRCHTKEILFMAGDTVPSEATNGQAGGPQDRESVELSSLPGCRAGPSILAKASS
Description: as §1, §2, §3, §4

[3] = iv, read-out: ED50 iv after 1 min (cumulative) NK1 (early hypotension)
[4] = oral, from AUC of antagonistic effect 1 - 180 min after administration, read-out: ED50 AUC1-180 min oral NK1 (early hypotension)
[5] = iv, read-out: ED50 iv after 1 min (cumulative) NK2 (broncho-constriction)
[6] = iv, read-out: ED50 iv after 1 min (cumulative) NK2 (colonic motility)
[7] = iv, read-out: ED50 iv after 1 min (cumulative) NK2 (late hypotension)
[8] = oral, from AUC of antagonistic effect 1 - 180 min after administration, read-out: ED50 AUC1-180 min oral NK2 (broncho-constriction)
[9] = oral, from AUC of antagonistic effect 1 - 180 min after administration, read-out: ED50 AUC1-180 min oral NK2 (colonic motility)
[10] = oral, from AUC of antagonistic effect 1 - 180 min after administration, read-out: ED50 AUC1-180 min oral NK2 (late hypotension)

T1 sequence (P25103 whole entry): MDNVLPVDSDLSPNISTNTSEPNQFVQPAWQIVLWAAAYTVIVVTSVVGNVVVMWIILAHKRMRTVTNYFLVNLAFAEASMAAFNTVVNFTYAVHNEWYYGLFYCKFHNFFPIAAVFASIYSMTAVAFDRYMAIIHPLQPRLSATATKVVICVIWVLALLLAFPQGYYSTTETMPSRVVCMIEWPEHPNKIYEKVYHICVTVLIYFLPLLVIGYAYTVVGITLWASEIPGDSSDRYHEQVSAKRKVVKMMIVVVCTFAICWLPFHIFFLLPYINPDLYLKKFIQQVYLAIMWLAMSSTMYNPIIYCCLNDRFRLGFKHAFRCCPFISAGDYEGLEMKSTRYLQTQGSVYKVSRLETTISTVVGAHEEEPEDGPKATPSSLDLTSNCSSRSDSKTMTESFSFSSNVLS
T2 sequence (P30547 whole entry): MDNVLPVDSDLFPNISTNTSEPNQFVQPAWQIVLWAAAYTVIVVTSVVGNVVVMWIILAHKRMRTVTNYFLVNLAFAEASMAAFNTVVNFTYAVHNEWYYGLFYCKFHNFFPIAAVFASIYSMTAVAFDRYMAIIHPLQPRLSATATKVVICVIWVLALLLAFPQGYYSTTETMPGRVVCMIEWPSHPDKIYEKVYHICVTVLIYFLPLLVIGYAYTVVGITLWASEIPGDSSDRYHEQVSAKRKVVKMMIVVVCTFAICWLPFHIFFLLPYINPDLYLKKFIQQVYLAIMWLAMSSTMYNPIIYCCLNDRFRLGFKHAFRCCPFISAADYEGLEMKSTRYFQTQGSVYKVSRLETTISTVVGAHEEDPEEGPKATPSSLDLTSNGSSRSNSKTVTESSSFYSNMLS

Ki (human NK1 receptors)	EC50 (NK1 receptors [1])	ED50 (NK1 receptors [2]; [3])	ED50 (NK1 receptors [2]; [4])	oral activity as NK1 receptor antagonist (NK1 receptors [2])	ED50 (NK2 receptors; [5])	ED50 (NK2 receptors; [6])	ED50 (NK2 receptors; [7])	ED50 (NK2 receptors; [8])	ED50 (NK2 receptors; [9])	ED50 (NK2 receptors; [10])	oral activity as NK2 receptor antagonist (NK2 receptors)	SMILES
3.98 nM	0.398 nM	0.077 µmol/kg	22.9 µmol/kg	active orally	0.321 µmol/kg	0.027 µmol/kg	0.643 µmol/kg	3.1 µmol/kg	5.5 µmol/kg	3.1 µmol/kg	active orally	CN(C[C@@H](CCN1CCN([C@@H](c2ccco2)[C@H](O)CO)CC1)c1ccc(Cl)c(Cl)c1)C(=O)c1cc(C#N)cc2ccccc12 [Compound 1, 3-cyano-N-[(2S)-2-(3,4-dichlorophenyl)-4-{4-[(1R,2S)-1-(2-furyl)-2,3-dihydroxypropyl]piperazin-1-yl}butyl]-N-methyl-1-naphthamide]
3.16 nM	0.316 nM	< 0.01 µmol/kg	15.2 µmol/kg	active orally	< 0.01 µmol/kg	0.085 µmol/kg	0.106 µmol/kg	11.7 µmol/kg	6 µmol/kg	14.8 µmol/kg	active orally	CN(C[C@@H](CCN1CCN([C@@H](c2ccco2)[C@H](O)[C@@H](O)[C@H](O)CO)CC1)c1ccc(Cl)c(Cl)c1)C(=O)c1cc(C#N)cc2ccccc12 [Compound 2, 3-cyano-N-[(2S)-2-(3,4-dichlorophenyl)-4-{4-[(1R,2S,3R,4R)-1-(2-furyl)-2,3,4,5-tetrahydroxypentyl]piperazin-1-yl}butyl]-N-methyl-1-naphthamide]
5.01 nM	0.398 nM	0.071 µmol/kg			0.595 µmol/kg	0.05 µmol/kg	0.282 µmol/kg					CN(C[C@@H](CCN1CCN(C(CO)(CO)c2ccco2)CC1)c1ccc(Cl)c(Cl)c1)C(=O)c1cc(C#N)cc2ccccc12 [Compound 6, 3-cyano-N-[(2S)-2-(3,4-dichlorophenyl)-4-{4-[1-(2-furyl)-2-hydroxy-1-(hydroxymethyl)ethyl]piperazin-1-yl}butyl]-N-methyl-1-naphthamide]
7.94 nM	1.26 nM	0.093 µmol/kg			0.13 µmol/kg	0.132 µmol/kg	0.145 µmol/kg					CN(C[C@@H](CCN1CCN([C@@H](c2ccco2)[C@H]2COC(=O)O2)CC1)c1ccc(Cl)c(Cl)c1)C(=O)c1cc(C#N)cc2ccccc12 [Compound 11, 3-cya no-N-[(2S)-2-(3,4-dichlorophenyl)-4-(4-{(R)-2-furyl[(4S)-2-oxo-1,3-dioxolan-4-yl]methyl}piperazin-1-yl)butyl]-N-methyl-1-naphthamide]
